These results are taken from patent US7964701B2, “Alpha-fetoprotein peptides” (Albany Medical College, priority 2006, dated 2011).

Where a SMILES comes first, the peptide text is derived from it. Where no end group is shown, it is not given here. [ ]: non-standard residue; d: D form. Hyp = O=C(O)[C@@H]1C[C@@H](O)CN1

Assay [1] relates to E2-stimulated growth of mouse uterus. Nature of the assay: Immature mouse uterine growth assay. To be noted: for antiestrogenic activity (inhibition of E2-stimulated uterine growth), in words: Table 3 discussion; for antiestrogenic activity (inhibition of E2-stimulated uterine growth), in words / Inhibition ± S.E, % Immature mouse uterine growth Intraperitoneal: 1 μg/mouse intraperitoneally; for dose-response profile, inhibition of E2-stimulated uterine growth: FIG. 5; for Activity % ± SD (percent growth inhibition of uterus): dose 1 ug/animal. The class given is in vivo. An excerpt:
The anti-breast cancer activity of the linear and cyclic 8-mer and 9-mer AFP-derived peptides is well-documented using the immature mouse uterine growth assay and the human breast cancer xenograft assay; there is a strong correlation between the results of these two assays. To evaluate peptide-induced inhibition by the peptide of the present invention of estrogen-stimulated proliferation of normal tissue, the immature mouse uterine growth assay was utilized. Briefly, 13-15 day-old Swiss/Webster female mice, 6-8 g in body weight, were distributed into treatment groups of 5 mice per group so that each group contained animals of the same range of body weight. The peptide of the invention was injected i.p., s.c., or p.o. into the mice. One hour later, estradiol (E2) or vehicle control for E2 was injected i.p. Twenty-two hours after the second injection, uteri were harvested, trimmed free of mesenteries, and immediately weighed. The uterine weights were normalized to mouse body weights to compensate for differences in body weight among litters of the same age. Experiments employed a minimum of five mice per group and the mean normalized uterine weight±SE for each group was calculated. Percent growth inhibition in a test group was calculated from normalized uterine wet weights as described below.
Differences between groups were evaluated, employing the nonparametric Wicoxon ranks sum test. In all cases, growth inhibitions that were greater than 25% were significant at P≦0.05.
In other experiments, peptide analogs comprising the sequences TOVN SEQ ID NO.: 3) and TPVN (SEQ ID NO.: 2) were assessed for their ability to inhibit E2-stimulated growth of mouse uterus after intraperitoneal and oral administration.
The ability to inhibit E2-stimulated growth of normal mouse uterus was used as a screening assay for biological activity of AFPep analogs. In general, inhibitory activity≧20% is considered to be biologically significant. Each analog's inhibitory effect on E2-stimulated growth was compared to AFPep (a positive control) and to PGVGQ (SEQ ID NO.: 44)(a negative control). PGVGQ (SEQ ID NO.: 44) (amino acids 478-482 of AFP) is a portion of the primary structure of AFP near to the anti-cancer active site of AFP and is comprised of amino acids (P, V, and G) that are important components of AFPep. A scrambled analog of AFPep was not used because some scrambled peptides retain low biological activity (data not shown). In Table 3, bold letters denote the sequences containing a putative Type I beta-turn, which was postulated to be necessary for antiestrogenic activity.

Assay [2] concerns T47D human breast cancer cells. To be noted: for inhibition of E2-stimulated T47D cell growth, in words: Table 3 discussion, 1 μM; for concentration up to which E2-stimulated T47D growth was inhibited in a concentration dependent manner / activity maintained / dose response profile, inhibition of E2-stimulated T47D cell growth: FIG. 6. The method, then: T47D cells were obtained from ATCC® (Rockville, Md.) and grown in culture according recommended protocols. Cells were treated with 1 nM estrogen or 100 nM TOVNO (SEQ ID NO.: 7)/1 nM estrogen. Control cells received 10% estrogen-free media. Cells were treated for seven days.
A number of AFPep analogs were assessed for in vitro anticancer activity.

Assay [3] relates to MCF-7 human breast cancer cells. Kind of assay: MCF-7 human tumor xenograft assay in SCID mice. The class given is in vivo, mouse. To be noted: for change in mean tumor volume: FIG. 1. On the procedure: The peptides of the invention were evaluated for their ability to inhibit tumor growth in a human tumor xenograft assay. Briefly, MCF-7 human breast cancer cells were obtained from ATCC® (Rockville, Md.) and were grown in DMEM supplemented with 5% FCS, 1% non-essential amino acids, 10 ng/ml insulin, 2 mM L-glutamine, 100 units/ml penicillin, and 100 μg/ml streptomycin. MCF-7 cells from culture were solidified into a fibrin clot. The tumor-containing clots were cut into pieces about 1.5 mm in diameter and implanted under the kidney capsule of severe combined immunodeficient (ICR-SCID) mice (Taconic Farms, Germantown, N.Y.) as described in Bennett et al. (Clin. Cancer Res. 1998; 4:2877-84).
Estrogen supplementation of mice was required for the growth of MCF-7 tumors. Supplementation was accomplished by s.c. implantation of a Silastic tubing capsule containing solid E2 (2 mm in length) inserted on the day of tumor implantation. Tumor size was evaluated during survival laparotomy using a dissecting microscope at the time of tumor implantation and at days 15 and 30 after tumor implantation.
The T47D human breast cancer cell line is responsive in culture, but it was a less reliable tool when grown as a xenograft tumor in immune deficient mice, having a take-rate of <60% in these mice. However, the MCF-7 human breast cancer cell line has a tumor take-rate of 100% in immune deficient mice and is completely dependent on E2 for growth in these mice (2). Consequently, MCF-7 xenografts were used as a model for ER+human breast cancer to evaluate, in vivo, the effectiveness of TOVNO (SEQ ID NO.: 7) and TOVNOGNEK (SEQ ID NO.: 34) as anticancer agents.
On the technique in general: Xenograft models place foreign cells or tissue in a host animal.

The mark [4] stands for this setting: once a day 10 μg per mouse i.p., FIG. 7b.
[5] abbreviates: once a day 100 μg by oral gavage, FIG. 7a.

For `CC(C)[C@H](NC(=O)[C@@H]1C[C@@H](O)CN1C(=O)[C@@H](NC(=O)[C@H](CCCCN)NC(=O)[C@@H](N)CCC(=O)O)[C@@H](C)O)C(N)=O` [EKTOV] (H-EKT[Hyp]V-NH2; N-terminus assumed), in assay [1], the “antiestrogenic activity (inhibition of E2-stimulated uterine growth), in words” value is “little or no antiestrogenic activity”.
Same read-out and setting: the entry for `CC(C)[C@H](NC(=O)[C@@H]1C[C@@H](O)CN1)C(=O)N[C@@H](CC(N)=O)C(=O)N1C[C@H](O)C[C@H]1C(=O)NCC(N)=O` [OVNOG] (H-[Hyp]VN[Hyp]G-NH2; N-terminus assumed) is “weakly inhibited E2-stimulated uterine growth”.
`CC(C)[C@H](NC(=O)[C@@H]1C[C@@H](O)CN1)C(=O)N[C@@H](CC(N)=O)C(=O)N1C[C@H](O)C[C@H]1C(N)=O` [OVNO] (H-[Hyp]VN[Hyp]-NH2; N-terminus assumed): in assay [1], the “antiestrogenic activity (inhibition of E2-stimulated uterine growth), in words” value is “lacked antiestrogenic activity”. Further, the “inhibition of E2-stimulated T47D cell growth, in words” value in assay [2] is reported as “lacked inhibitory activity”.
On to “EMTOV (EMT[Hyp]V; not fully specified (C-terminus)) [5-mer outside the pharmacophoric region]”, for which, in assay [1], the “Inhibition ± S.E, % Immature mouse uterine growth Intraperitoneal” value was 1 ± 1% and the “antiestrogenic activity (inhibition of E2-stimulated uterine growth), in words” value was “little or no antiestrogenic activity”.
Consider `CC(C)[C@@H]1NC(=O)[C@@H]2C[C@@H](O)CN2C(=O)[C@H]([C@@H](C)O)NC(=O)[C@H](CCCCN)NC(=O)[C@H](CCC(=O)O)NC(=O)[C@H](CC(N)=O)NC(=O)CNC(=O)[C@@H]2C[C@@H](O)CN2C(=O)[C@H](CC(N)=O)NC1=O` [cyclo[EKTOVNOGN], reference compound] (cyclo(EKT[Hyp]VN[Hyp]GN)), for which, in assay [1], the “dose-response profile, inhibition of E2-stimulated uterine growth” value (from here on “dose-response profile, inhibition”) is “attenuated but did not completely eliminate this loss of activity with increasing doses”. The “growth of ER+ human MCF-7 breast cancer tumors” value in assay [3] (setting [4]) and in assay [3] (setting [5]) was “significantly inhibited” in each case. Also, in assay [2], the “concentration up to which E2-stimulated T47D growth was inhibited in a concentration dependent manner / activity maintained” value is “up to 10^−6 M”. The “dose response profile, inhibition of E2-stimulated T47D cell growth” value (from here on “dose response profile, inhibition”) in assay [2] is recorded as “lost activity at higher concentrations”. The “Inhibition ± S.E, % T47D cell proliferation” value in assay [2] (peptide 1 μM, E2-stimulated) is on record as 51 ± 4 %.
As to KTPVNPG, in assay [1], the “Inhibition ± S.E, % Immature mouse uterine growth Intraperitoneal” value is 34 ± 2 % and the “antiestrogenic activity (inhibition of E2-stimulated uterine growth), in words” value is given as “significantly inhibited E2-stimulated uterine growth”.
Take PVNP: in assay [1], the “Inhibition ± S.E, % Immature mouse uterine growth Intraperitoneal” value is 6 ± 3% and the “Activity % ± SD (percent growth inhibition of uterus)” value came out at 10%.
In the same order, the values of TPVN are 29 ± 1 % and 27%.
In the case of `CC(C)[C@H](NC(=O)[C@@H]1C[C@@H](O)CN1C(=O)[C@@H](NC(=O)[C@H](CCCCN)NC(=O)[C@@H](N)CCC(=O)O)[C@@H](C)O)C(=O)N[C@@H](CC(N)=O)C(=O)N1C[C@H](O)C[C@H]1C(=O)NCC(=O)N[C@@H](CC(N)=O)C(N)=O` [EKTOVNOGN] (H-EKT[Hyp]VN[Hyp]GN-NH2; N-terminus and C-terminus assumed), in assay [1], the “dose-response profile, inhibition” value is reported as “biphasic dose-response curve” and the “antiestrogenic activity (inhibition of E2-stimulated uterine growth), in words” value is listed as “active at this dose”. For the same compound, in assay [2], the “dose response profile, inhibition” value is given as “biphasic dose response curve”.
As for “MTOVNOG (MT[Hyp]VN[Hyp]G; not fully specified (C-terminus))”, in assay [1], the “Inhibition ± S.E, % Immature mouse uterine growth Intraperitoneal” value amounted to 28 ± 2 % and the “antiestrogenic activity (inhibition of E2-stimulated uterine growth), in words” value is reported as “significantly inhibited E2-stimulated uterine growth”.
As for `CC(C)[C@H](NC(=O)[C@@H]1C[C@@H](O)CN1C(=O)[C@@H](N)[C@@H](C)O)C(=O)N[C@@H](CC(N)=O)C(N)=O` [TOVN] (H-T[Hyp]VN-NH2; N-terminus assumed), the “antiestrogenic activity (inhibition of E2-stimulated uterine growth), in words” value in assay [1] is recorded as “weak antiestrogenic activity”. Besides, the “inhibition of E2-stimulated T47D cell growth, in words” value in assay [2] was “very weak inhibitory activity”.
Take “EKTPV [5-mer outside the pharmacophoric region]”: in assay [1], the “Inhibition ± S.E, % Immature mouse uterine growth Intraperitoneal” value was 0% and the “antiestrogenic activity (inhibition of E2-stimulated uterine growth), in words” value was “little or no antiestrogenic activity”.
The matching figures for “EMTPV [5-mer outside the pharmacophoric region]”: 5 ± 4% and “little or no antiestrogenic activity”.
For `CC(C)[C@H](NC(=O)[C@@H]1C[C@@H](O)CN1C(=O)[C@@H](N)[C@@H](C)O)C(=O)N[C@@H](CC(N)=O)C(=O)N1C[C@H](O)C[C@H]1C(N)=O` [TOVNO] (H-T[Hyp]VN[Hyp]-NH2; N-terminus assumed), the “dose-response profile, inhibition” value in assay [1] is reported as “biphasic dose-response curve”. Also, the “dose up to which E2-stimulated uterine growth was inhibited in a dose-dependent manner” value in assay [1] (FIG. 5c) is “up to 1 μg/mouse”. In addition, the “antiestrogenic activity (inhibition of E2-stimulated uterine growth), in words” value in assay [1] was “significantly inhibited E2-stimulated uterine growth”. For the same compound, the “change in mean tumor volume” value in assay [3] (100 μg/day p.o.) is “significantly decreased the increase in tumor volume”; in assay [3] (intraperitoneal 1 μg/day), “effective in reducing the increase in mean tumor volume”; in assay [3] (intraperitoneal 10 μg/day), “effective in reducing the increase in mean tumor volume”. In addition, the “growth of ER+ human MCF-7 breast cancer tumors” value in assay [3] (setting [4]) and in assay [3] (setting [5]) was “significantly inhibited” in each case. In addition, the “estrogen-stimulated T47D cell proliferation” value in assay [2] (100 nM peptide/1 nM estrogen, seven days, FIG. 3) is reported as “T47D cell proliferation was reduced”. For the same compound, in assay [2], the “concentration up to which E2-stimulated T47D growth was inhibited in a concentration dependent manner / activity maintained” value was “up to 10^−7 M”. The “dose response profile, inhibition” value in assay [2] was “lost activity with increasing concentration thereafter”. Moreover, in assay [2], the “inhibition of E2-stimulated T47D cell growth, in words” value is “significantly inhibited”.
Take `CC(C)[C@H](NC(=O)[C@@H]1C[C@@H](O)CN1C(=O)[C@@H](NC(=O)[C@@H](N)CCCCN)[C@@H](C)O)C(=O)N[C@@H](CC(N)=O)C(=O)N1C[C@H](O)C[C@H]1C(=O)NCC(N)=O` [KTOVNOG] (H-KT[Hyp]VN[Hyp]G-NH2; N-terminus and C-terminus assumed): in assay [1], the “antiestrogenic activity (inhibition of E2-stimulated uterine growth), in words” value was “significantly inhibited E2-stimulated uterine growth”.
With TPVNP, in assay [1], the “Inhibition ± S.E, % Immature mouse uterine growth Intraperitoneal” value was 27 ± 1 % and the “Activity % ± SD (percent growth inhibition of uterus)” value is reported as 26%.
